A short description of data set [1]: Lung distribution in mice (AUC lung/AUC plasma ratio). It counts as in vivo. To be noted: male, Balb/c, mouse, read-out: Lung penetration factor (AUC inf lung/AUC inf plasma). As for the experimental part: The lung distribution experiment used Male Balb/c (~30 g). After intravenous bolus and inhalation administration of 15 mg/kg and 50 mg/kg, respectively, of 6-methoxyseselin, three animals were sacrificed at 0.5 h, 1 h, 2 h, and 4 h, each. The lung samples were removed, gently blotted dry, weighed, and frozen at −80 °C until processing. On the day of the analysis, tissue samples were allowed to thaw and were weighed, and 2 mL of methanol was added per gram of tissue. The tissues were homogenized for approximately 5 min, and the homogenates were then transferred to Eppendorf® tubes and centrifuged at 3500× g for 15 min at 4 °C. A volume of supernatant was then processed similarly to the plasma samples and analyzed by HPLC-DAD. The lung penetration was calculated using the AUC lung/AUC plasma ratio. The trapezoidal method was used to estimate both AUCs.

Data set [2] concerns arteries isolated from rats. Details: method as in PMID 31711783, PMID 37149230. To be noted: cited from earlier work.
A short description of data set [3]: Plasma pharmacokinetics study in mice (non-compartmental analysis, HPLC-DAD). The format is in vivo, Balb/c mice. The following applies: mean ± SD; for k el: read-out: ke (converted). On the procedure:
The pharmacokinetic analysis was carried out with Balb/c mice (~30 g) obtained from the Animal Facilities at Oswaldo Cruz Foundation (Fiocruz, Bahia, Brazil) and kept in a room with environmental control (22 ± 2 °C and 12:12 h light–dark cycle), and with free access to water and food until the day of the experiment. Animal care and handling procedures were in strict accordance with the recommendations in the Guide for the Care and Use of Laboratory Animals of the National Institute of Health and the Brazilian College of Animal Experimentation. The protocol was approved by the Institutional Animal Care and Use Committee of FIOCRUZ (CEUA/FIOCRUZ, permit number: L-IGM-013/2021).
The compound was administered to the mice (n = 3 per time point) by inhalation and intravenous routes at 50 and 15 mg/kg, respectively. The intravenous administration was conducted through the lateral tail vein, and the inhalation dosing was conducted using inhalation exposure chambers. The nebulizer device was operated according to the manufacturer’s specifications. The blood samples were collected 0.083, 0.25, 0.5, 0.75, 1, 2, and 4 h after both administrations. The blood samples were centrifuged for plasma separation (6000 rpm, 10 min, 8 °C) and stored at −18 °C until analysis.
The non-compartmental pharmacokinetic parameters of both studies were estimated using PKanalix® Suite 2020R1 software (Lixoft®, Antony, France). The determined PK parameters included the elimination rate constant (ke), the elimination half-life (t1/2), the area under the concentration–time curve (AUC) calculated by the linear trapezoidal rule, the mean residence time (MRT), the total clearance (CL), and the volume of distribution (Vd).

Data set [4] can be described thus: Long-term stability in mice plasma stored at −18 °C. It counts as in vitro ADME. As for the experimental part: Stability assays were performed in triplicate with the QC samples (LQC and HQC) by adding 6-methoxyseselin to mice plasma. The stability after 30, 45, and 60 days was performed with samples stored at −18 °C. 6-methoxyseselin was considered stable in plasma for the period evaluated when the accuracy was within acceptable limits (RSE within ±15%).

The conditions of data set [5]: cited from earlier work.
[6] abbreviates: Balb/c, mouse, inhaled or intranasal, inhalation 50 mg/kg.
Setting [7] is: Balb/c, mouse, intravenous 15 mg/kg.

The text below walks through data of PMC11206778, “Preclinical Pharmacokinetic Study and Lung Penetration of a Coumarin Extracted from Zanthoxylum tingoassuiba” (Pharmaceutics, 2024).

Where two headings read alike, the source gives them in different places.

With `COc1cc2ccc(=O)oc2c2c1OC(C)(C)C=C2` [6-methoxyseselin], the Kp in data set [1] (inhaled, inhalation 50 mg/kg) came out at 2.14. Further, in data set [1] (intravenous 15 mg/kg), the Kp amounted to 1.45. The Vasorelaxation entry in data set [2] is “potent vasorelaxation”. In addition, in data set [3] (setting [6]), the MRT is 5.4 ± 2.1 h, the half-life was 3.3 ± 0.86 h and the k el is 5.83e-05 s⁻¹. In data set [3] (setting [7]), the MRT is 3.23 ± 1.57 h, the clearance is 88.7 mL/min/kg, the half-life is 2.6 ± 0.73 h and the k el is 7.5e-05 s⁻¹. In data set [3] (Balb/c, mouse, intravenous 15 mg/kg, read-out: Vd), the Vd was determined as 19.6 ± 1.57 L/kg. Moreover, in data set [3] (inhalation 50 mg/kg), the Cl stood at 110 ± 39 mL/min/kg and the Vd is listed as 18.79 ± 2.58 L/kg. Moreover, the “Stability in storage (verdict)” value in data set [4] (60 days) is given as “unstable”. Moreover, the “Stability in storage (verdict)” value in data set [4] (until day 30) is “stable”.
As to `CC(C)(C)NCC(O)c1ccc(O)c(CO)c1` (stereo not drawn) [salbutamol], the Vd in data set [5] was 3 to 4 L/kg.
Turning to `CCCC1O[C@@H]2C[C@H]3[C@@H]4CCC5=CC(=O)C=C[C@]5(C)[C@H]4[C@@H](O)C[C@]3(C)[C@]2(C(=O)CO)O1` (stereo partly drawn) [budesonide], in data set [5], the half-life was 2 to 3.6 h. In addition, the Vd in data set [5] (reference not given, ref 22 follows in the same paragraph) was 2.2 to 3.9 L/kg.
